According to patent US20240197666A1, “DITERPENOID COMPOUNDS THAT ACT ON PROTEIN KINASE C (PKC)” (K-Gen Therapeutics, Inc., priority 2021, published 2024):

How the values were obtained:
[1] = system: Hela cells; assay: In vitro scratch wound healing assay; assay type: cell-based; details: 24h
Description: Scratch wound healing assay creates a gap by scratching a confluent monolayer of cells to mimic a wound and then measures the ability of cells to fill up the gap (wound) in the presence of DMSO or test compounds. 1.2-1.5×10^5 Hela cells in 1 mL media RPMI-1640 with 10% FBS were seeded in 24-well plates. Cells were starved for overnight in the same media without FBS when cells became confluent. After starvation, a scratch was made in the middle of the well and the plates were washed three times to remove detached cells. DMSO or different concentrations of compounds were diluted and added to the cells. The assay plates were put into Incucyte S3 and scanned with 4× scanner setting regularly. The imaging results were exported and the wound area was analyzed by ImageJ. Wound healing or closure was calculated by the following formula: wound healing %=(wound area at 0h−wound area at 24h)/wound area 0h*100%. Relative wound healing was calculated by dividing wound healing % of compound treatment to that of DMSO*100%.

[2] = system: NFκB-driven transcription in HeLa-NFκB luciferase reporter cell line; assay: NFκB luciferase reporter assay; details: Homo sapiens, HeLa, 16 h, read-out: NFκB-luc HeLa cells EC50 (μM)
Description: A HeLa-NFκB luciferase reporter cell line (Wuxi Biology) was used to assess a group of PKC activator compounds for their ability to activate NFκB-driven transcription. […] One set of cells was assayed for luciferase activity (Promega, Cat #E1500) and the other set was assayed to determine the number of viable cells (for cell number normalization) using CellTiter-Glo (CTG) kit (Promega, Cat #G7570) according to manufacture's procedures. Normalized data (luciferase value/CTG value) were analyzed using GraphPad Prism5 to calculate EC50 for each compound (see Table 8).
To assess if activation of PKC is required for these compounds to activate NFκB, several PKC inhibitors including broad-spectrum and conventional PKC inhibitors were tested. In the assay described above, PKC inhibitors were added at the same time as the PKC activator compounds.

[3] = system: PANC1 cells; assay: Sphere formation assay; assay type: cell-based; details: Homo sapiens, PANC-1, read-out: concentration exhibiting at least 50% inhibition on the sphere forming efficiency
Summary of the method: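 K-Ras mutant PANC1 single cells seeded at 100 cells/well on ultra-low attachment plates in 10% FBS medium with 2% Matrigel plus DMSO or compound, six replicates, 37° C. Low-serum (0.1% FBS) medium added weekly; spheres counted at 3-4 weeks, efficiency as % spheres per cells seeded.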

[4] = system: Namalwa (Lymphoma); assay: Proliferation of Namalwa; assay type: cell-based
Summary of the method: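 Panc2.13 was seeded at 3000 cells/well, KP-4 at 800-1000, HL-60 at 5000 and Namalwa at 5000-10000, then given 3-fold serial dilutions of compound with final DMSO ≤0.25% for 96 h at 37° C. CellTiter Glo luminescence was read and inhibition calculated against DMSO-only wells. IC50 was normalised to comparator K101.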

[5] = system: human PBMC cells; assay: Cytokine/chemokine gene expression in human PBMC (TaqMan); assay type: cell-based; details: 4 h;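 for Gene Relative Expression CCL2: 2^-ΔΔCt fold change vs DMSO control normalized to 18S and GAPDH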;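 for Gene Relative Expression GM-CSF: 2^-ΔΔCt fold change vs DMSO control normalized to 18S and GAPDH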;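 for Gene Relative Expression IFN-α: 2^-ΔΔCt fold change vs DMSO control normalized to 18S and GAPDH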;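 for Gene Relative Expression IFNγ: 2^-ΔΔCt fold change vs DMSO control normalized to 18S and GAPDH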
Description: Each treatment condition was performed in duplicates.

## CC1=C[C@H]2[C@@]3(O)[C@H](C)C[C@]4(OC(=O)[C@@H](N)CCCCCCc5ccccc5)[C@H]([C@@H]3C=C(CO)C[C@]2(O)C1=O)C4(C)C
[1]; 3 nM
  Relative wound healing to control (%): 162%
[1]; 10 nM
  Relative wound healing to control (%): 237%
[1]; 30 nM
  Relative wound healing to control (%): 267%
[2]
  EC50: 0.001 to 0.01 µM
[3]
  IC50: ≤ 50 nM
[4]
  ratio (IC50 of K101)/(IC50 of compound) Namalwa: 16.1
[4]; read-out: IC50 Namalwa (Lymphoma)
  IC50: 1 to 10 nM
[5]; 0.01 μM
  Gene Relative Expression CCL2: 1.81
  Gene Relative Expression GM-CSF: 1.00
  Gene Relative Expression IFN-α: 0.73
  Gene Relative Expression IFNγ: 1.46
  Gene Relative Expression IL-1β: 0.38
  Gene Relative Expression IL-2: 1.32
  Gene Relative Expression IL-6: 0.57
  Gene Relative Expression IL-8: 0.44
  Gene Relative Expression IL-10: 1.59
  Gene Relative Expression IL-12p40: 0.34
  Gene Relative Expression IL-12p70: 1.05
  Gene Relative Expression IL-13: 0.37
  Gene Relative Expression IL-18: 0.63
  Gene Relative Expression ISG15: 0.94
  Gene Relative Expression MIP1a (CCL3): 1.29
  Gene Relative Expression MX1: 0.77
  Gene Relative Expression OAS1: 0.85
  Gene Relative Expression TNF-α: 1.34
[5]; 0.03 μM
  Gene Relative Expression CCL2: 6.53
  Gene Relative Expression GM-CSF: 1.88
  Gene Relative Expression IFN-α: 1.21
  Gene Relative Expression IFNγ: 1.49
  Gene Relative Expression IL-1β: 0.94
  Gene Relative Expression IL-2: 3.59
  Gene Relative Expression IL-4: 1.19
  Gene Relative Expression IL-6: 1.23
  Gene Relative Expression IL-8: 0.66
  Gene Relative Expression IL-10: 0.86
  Gene Relative Expression IL-12p40: 0.38
  Gene Relative Expression IL-12p70: 0.96
  Gene Relative Expression IL-13: 5.87
  Gene Relative Expression IL-18: 0.19
  Gene Relative Expression ISG15: 0.97
  Gene Relative Expression MIP1a (CCL3): 1.67
  Gene Relative Expression MX1: 0.65
  Gene Relative Expression OAS1: 0.55
  Gene Relative Expression TNF-α: 2.91
[5]; 0.10 μM
  Gene Relative Expression CCL2: 0.40
  Gene Relative Expression GM-CSF: 21.01
  Gene Relative Expression IFN-α: 0.80
  Gene Relative Expression IFNγ: 11.33
  Gene Relative Expression IL-1β: 3.00
  Gene Relative Expression IL-2: 4.98
  Gene Relative Expression IL-4: 2.78
  Gene Relative Expression IL-6: 6.15
  Gene Relative Expression IL-8: 0.44
  Gene Relative Expression IL-10: 0.12
  Gene Relative Expression IL-12p70: 0.74
  Gene Relative Expression IL-13: 121.59
  Gene Relative Expression IL-18: 0.05
  Gene Relative Expression ISG15: 1.57
  Gene Relative Expression MIP1a (CCL3): 4.95
  Gene Relative Expression MX1: 1.06
  Gene Relative Expression OAS1: 0.71
  Gene Relative Expression TNF-α: 6.52
